Measurements: patent publication US7247630B2, “Uses of tricyclic compounds” (Cell Therapeutics, Inc., priority 2000, dated 2007)

Legend:
[1] = system: IL-12 induced Th1 differentiation; test: IL-12 dependent in vitro T-helper cell (Th1) differentiation assay; type: cell-based; details: 168 h, inhibition of IL-12 induced Th1 differentiation as defined by IFN-γ production upon secondary stimulation with anti-CD3 alone, splenic T cells, anti-CD3 and 5 U/ml IL-12, seven days
Method: This example illustrates the inventive compounds' ability to suppress Th1 differentiation in vitro by blocking IL-12 signaling. Each of compounds [A through Y] were tested in an IL-12 dependent in vitro T-helper cell differentiation assay as described in LeGross et al., J. Exp. Med., 172:921-929 (1990). Recombinant IL-12 was used to induce Th1 differentiation. Splenic T cells were purified utilizing the antibodies RA3-3A1/6.1 (anti-B220), J11d and MAR18.5 (anti-rat kappa chain) to deplete the B cells by magnetic bead separation, as described in Coon et al, J. Immuno., 163:6567-6574 (1989). Splenic T cells were stimulated at 5×10^5/ml with insoluble anti-CD3 alone (145-2C11, Pharmingen, San Diego, Calif.), or anti-CD3 and 5 U/ml IL-12, with and without each inventive compound. After seven days, equal numbers of viable cells were restimulated for 24 hours with anti-CD3 without the inventive compounds, and the supernatants were collected and assayed for IFN-γ production. IFN-γ and IL-4 levels were measured by ELISA test specific for IFN-γ and IL-4.
Th1 differentiation was induced by culturing anti-CD3 stimulated T cells in the presence of exogenous IL-12. […] It was observed that the presence of the tested compounds during T cell activation inhibited Th1 differentiation, which had been enhanced by the addition of exogenous IL-12. The values in the “IC50 μM” column were determined by measuring the inhibition of IL-12 induced Th1 differentiation as defined by IFN-γ production upon secondary stimulation with anti-CD3 alone. None of the compounds affected the viability or recovery of T cells after one week of culture

[2] = system: IL-4 induced T2 differentiation; test: T2 differentiation assay (T0 cells stimulated in the presence of IL-4); type: cell-based; details: for IC50: T0 cells stimulated in the presence of IL-4, IL-4 secretion as readout; for IL-4 production of resulting effector cells / activation and proliferation of resulting effector cells: T0 cells stimulated in the presence of IL-4 and compound
Method: (R)-7,8-Dihydro-3-(5-hydroxyhexyl)-1-methyl-1H-imidazo[2,1-f]-purine-2,4(3H,6H)-dione (CT-13430) (see Example 1) and (R)-3-(5-Hydroxyhexyl)-1-methyl-6,7,8,9-tetrahydro-pyrimido[2,1-f]purine-2,4(1H,3H)-dione (CT-13431) (see Example 4) were tested to determine their ability to block the differentiation of T0 cells to T2 effectors as judged by their relative inability to secrete the canonical T2 effector cytokine, IL-4, following treatment with the compounds. In a series of experiments analogous to the T1 differentiation assay of Example 10 (in which T0 cells were induced to become T1 effectors by polyclonal stimulation in the presence of IL-12), the above compounds were effective in a T2 differentiation assay in which T0 cells are stimulated in the presence of IL-4, which affects T2 differentiation.

Structure (SMILES)	IC50 [1] [µM]	IC50 [2] [µM]	IL-4 production of resulting effector cells [2]	activation and proliferation of resulting effector cells [2]
C[C@@H](O)CCCCn1c(=O)c2c(nc3n2CCNC3)n(C)c1=O [compound 30099, (R)-3-(5-hydroxyhexyl)-1-methyl-6,7,8,9-tetrahydro-pyrazino[2,1-f]purine-2,4(1H,3H)-dione]	22			
C[C@@H](C#N)CCCCn1c(=O)c2c(nc3n2CCCN3)n(C)c1=O [compound 30146, (R)-3-(5-cyanohexyl)-1-methyl-6,7,8,9-tetrahydro-pyrimido[2,1-f]purine-2,4(1H,3H)-dione]	14			
C[C@@H](O)CCCCn1c(=O)c2c(nc3n2CCS3)n(C)c1=O [compound 13421, (R)-6,7-Dihydro-3-(5-hydroxyhexyl)-1-methyl-thiazolo[2,3-f]purine-2,4 (1H,3H)-dione]	33			
C[C@@H](O)CCCCn1c(=O)c2c(nc3n2CCN3)n(C)c1=O [compound 13430, (R)-7,8-Dihydro-3-(5-hydroxyhexyl)-1-methyl-1H-imidazo[2,1-f]-purine-2,4(3H,6H)-dione]	17	14	deficient in IL-4 production	proliferated normally
C[C@@H](O)CCCCn1c(=O)c2c(nc3n2CCCN3)n(C)c1=O [compound 13431, (R)-3-(5-Hydroxyhexyl)-1-methyl-6,7,8,9-tetrahydro-pyrimido[2,1-f]purine-2,4(1H,3H)-dione]	11	13	deficient in IL-4 production	proliferated normally
CC(=O)N1CCn2c1nc1c2c(=O)n(CCCC[C@@H](C)O)c(=O)n1C [compound 30260, (R)-3-(5-Hydroxyhexyl)-1-methyl-6,7-dihydro-2,4-dioxo-8-N-acetyl-1H-imidazo[2,1-f]-purine]	9			
C[C@@H](C#N)CCCCn1c(=O)c2c(nc3n2CCN3)n(C)c1=O [compound 30255, (R)-3-(5-Cyanohexyl)-7,8-dihydro-1-methyl-1H-imidazo[2,1-f]-purine-2,4(3H,6H)-dione]	16			
C[C@@H](CCCCn1c(=O)c2c(nc3n2CCCN3C)n(C)c1=O)N(C)C [compound 30262]	34			
CC(=O)N1CCn2c1nc1c2c(=O)n(CCCC[C@@H](C)N)c(=O)n1C [compound 30259]	15			
CC(=O)N1CCn2c1nc1c2c(=O)n(CCCC[C@H](C)O)c(=O)n1C [compound 30256]	24			

Now from value to compound, other results behind:

IC50 [1] [µM]	IC50 [2] [µM]	Structure (SMILES)	IL-4 production of resulting effector cells [2]	activation and proliferation of resulting effector cells [2]
20		C[C@@H](O)CCCCn1c(=O)c2nc3n(c2n(C)c1=O)CCN3 [compound 30268, (R)-3-(5-hydroxyhexyl)-1-methyl-1,6,7,8-tetrahydro-2H-imidazo[1,2-e]-purine-2,4(3H)-dione]		
53		C[C@H](O)CCCCn1c(=O)c2c(nc3n2CCCN3)n(C)c1=O [compound 30269]		
90		C[C@H](N)CCCCn1c(=O)c2c(nc3n2CCCN3)n(C)c1=O [compound 30263]		
39		C[C@@H](CCCCn1c(=O)c2c(nc3n2CCCN3)n(C)c1=O)N(C)C [compound 30264]		
34		C[C@H](CCCCn1c(=O)c2c(nc3n2CCCN3)n(C)c1=O)N(C)C [compound 30267]		
